Patent US8039430B2 (University of Wollongong, priority 2005, dated 2011)
≈ marks a conversion by molar mass, not a printed value. Read-outs that look alike come from different tables or passages of the source.

Columns and labels:
[1] = system: Staphylococcus aureus (ATCC 6538P); experiment: Antibacterial assay (MIC), Staphylococcus aureus ATCC 6538P, Luria Broth, Example 1; type: cell-based; details: Staphylococcus aureus, ATCC6538P, read-out: Sa (minimum inhibitory concentration)
Experimental: (§1) Antibacterial Assay Method for Staphylococcus aureus (ATCC 6538P) and Enterococcus faecium
Staphylococcus aureus (ATCC 6538P)
(§2) Compounds are accurately weighed out (between approx. 1-2 mg) and dissolved in either 10% methanol/water (v/v) or 100% DMSO to a final stock concentration of 5 mg/ml.
(§3) Compounds are then diluted 1/10 in H2O to a test conc of 500 ug/ml ready for immediate use, or storage at −20° C.
(§4) Grow up an o/n starter culture of Staphylococcus aureus and each VRE strain by diluting previous culture (stored at 4° C.) 1/1000 into −50 mls Luria Broth (LB) for S. aureus or Enterococossel Broth (EB) for the VRE strains.
(§5) Incubate o/n at 37° C.+shaking. • A glycerol stock (0.6 mls bacterial culture, 0.3 mls glycerol) of each strain is kept at −80° C. if needed. Assay Set Up:
(§6) In a 96well round bottom plate add 50 ul LB/well for the S. aureus plate and add 50 ul EB/well for the VRE plates.
(§7) Add 50 ul of compound dilution (500 ug/ml test conc) to each of three top row wells (ie: tested in triplicate) and dilute 1 in 2 from the top row to the bottom row.
(§8) After the compound dilution, add to each well 50 ul of a 1/1000 dilution of the appropriate overnight bacterial culture, either S. aureus or the different VRE strains.
(§9) Plates are incubated at 37° C. on a slowly rotating plate incubator. • test concentrations are (in ug/ml) 125, 62.5, 31.25, 15.6, 7.8, 3.9, 1.9, 0.98 • final DMSO concentration in the first row of wells of the assay is 2.5% • Vancomycin is included in the assay (in triplicate) at a starting test concentration of 5 ug/ml for S. aureus and 125 ug/ml for the VRE strains Reading Results of Assay:
(§10) After incubation for 24 hrs the plates are removed and read. Inhibition of bacterial growth is indicated by lack of bacterial pellet or a clear well. In the VRE plates bacterial growth is indicated by black coloured media (EB) as well as a bacterial pellet.
(§11) Untreated control wells are included in the assay to check they all contain bacterial pellets. Uninoculated untreated control wells are included to check they all contain clear medium.
(§12) The plates are analysed for MIC and the results tabulated.

[2] = system: #243 E. faecium van B ST17; experiment: Antibacterial assay (MIC), VRE strain #243, Enterococossel Broth, Example 1; type: cell-based, Enterococcus faecium; details: Enterococcus faecium, read-out: 243 (minimum inhibitory concentration)
Experimental: as §1
(§13) VRE strains: #243 E. faecium van B ST17 #449 E. faecium van B ST17
as §2, §3, §4, §5, §6, §7, §8, §9, §10, §11, §12

[3] = system: #449 E. faecium van B ST17; experiment: Antibacterial assay (MIC), VRE strain #449, Enterococossel Broth, Example 1; type: cell-based, Enterococcus faecium; details: Enterococcus faecium, read-out: 449 (minimum inhibitory concentration)
Experimental: as §1, §13, §2, §3, §4, §5, §6, §7, §8, §9, §10, §11, §12

[4] = system: #820 E. faecium van A ST17; experiment: Antibacterial assay (MIC), VRE strain #820, Enterococossel Broth, Example 1; type: cell-based, Enterococcus faecium; details: Enterococcus faecium, read-out: 820 (minimum inhibitory concentration)
Experimental: as §1
(§14) #820 E. faecium van A ST17 #987 E. faecium van B ST39
as §2, §3, §4, §5, §6, §7, §8, §9, §10, §11, §12

[5] = system: #987 E. faecium van B ST39; experiment: Antibacterial assay (MIC), VRE strain #987, Enterococossel Broth, Example 1; type: cell-based, Enterococcus faecium; details: Enterococcus faecium; Example 1 compounds; VRE #987 E. faecium van B; 24 hrs, 37° C.; read-out: 987 (minimum inhibitory concentration)
Experimental: as §1, §14, §2, §3, §4, §5, §6, §7, §8, §9, §10, §11, §12

[6] = Example 1 compounds, S. aureus ATCC 6538P, 24 hrs, 37° C., range if at least two of three values fell within it
[7] = Example 1 compounds, VRE #243 E. faecium van B, 24 hrs, 37° C.
[8] = Example 1 compounds, VRE #449 E. faecium van B, 24 hrs, 37° C.
[9] = Example 1 compounds, VRE #820 E. faecium van A, 24 hrs, 37° C.

Structure (SMILES) | MIC [1, 6] [µg/mL] | MIC [2, 7] [µg/mL] | MIC [3, 8] [µg/mL] | MIC [4, 9] [µg/mL] | MIC [5] [µg/mL] | MIC ([1]; 24 h) [µg/mL] | MIC ([3]; VRE, 24 h) [µg/mL] | MIC ([4]; VRE, 24 h) [µg/mL] | MIC ([2]; VRE, 24 h) [µg/mL]
CC(C)CCOc1ccc2ccccc2c1-c1c(OCC(=O)N[C@H](CCCCN)C(=O)N[C@H](CCCNC(=N)N)C(=O)N[C@@H](CC(C)C)c2ncc(Cc3ccccc3)o2)ccc2ccccc12.Cl.Cl (atropisomer, axis not shown) [Compound 18] | 0.99 to 15.6 | 15.7 to 62.5 | 15.7 to 62.5 | 15.7 to 62.5 | 15.7 to 62.5 | – | – | – | –
CC(C)CCOc1ccc2ccccc2c1-c1c(OCC(=O)N[C@H](CCCCN)C(=O)N[C@H](CCCNC(=N)N)C(=O)N[C@@H](Cc2ccccc2)C(=O)OCc2ccccc2)ccc2ccccc12.Cl.Cl (atropisomer, axis not shown) [Compound 19] | 0.99 to 15.6 | 15.7 to 62.5 | 15.7 to 62.5 | 15.7 to 62.5 | 15.7 to 62.5 | – | – | – | –
CC(C)CCOc1ccc2ccccc2c1-c1c(OCC(=O)N[C@H](CCCCN)C(=O)N[C@H](CCCNC(=N)N)C(=O)NC2(C(=O)OCc3ccccc3)CCCC2)ccc2ccccc12.Cl.Cl (atropisomer, axis not shown) [Compound 20] | 0.99 to 15.6 | 15.7 to 62.5 | 15.7 to 62.5 | 15.7 to 62.5 | 15.7 to 62.5 | – | – | – | –
C=CCOc1ccc2ccccc2c1-c1c(OCC(=O)N[C@H](CCCCN)C(=O)N[C@H](CCCNC(=N)N)C(=O)N[C@@H](CC(C)C)C(=O)OCc2ccccc2)ccc2ccccc12.Cl.Cl (atropisomer, axis not shown) [Compound 22] | 0.99 to 15.6 | 15.7 to 62.5 | 15.7 to 62.5 | 15.7 to 62.5 | 15.7 to 62.5 | – | – | – | –
C=CC[C@H](NC(=O)[C@@H](CCCNC(=N)N)NC(=O)[C@@H](CCCCN)NC(=O)COc1ccc2ccccc2c1-c1c(OCCCCC)ccc2ccccc12)C(=O)OCc1ccccc1.Cl.Cl (atropisomer, axis not shown) [Compound 26] | 0.99 to 15.6 | 15.7 to 62.5 | 15.7 to 62.5 | 15.7 to 62.5 | 15.7 to 62.5 | – | – | – | –
COC(=O)[C@@H](CCCNC(=N)N)NC(=O)CCCOc1ccc2ccccc2c1-c1c(OCCCC(=O)N[C@H](CCCNC(=N)N)C(=O)OC)ccc2ccccc12 [Compound 33] | – | – | – | – | – | 0.99 to 15.6 (≈ 1.24 to 19.5 µM) | > 62.6 | > 62.6 | –
N=C(N)NCCC[C@@H](NC(=O)CCCOc1ccc2ccccc2c1-c1c(OCCCC(=O)N[C@H](CCCNC(=N)N)C(=O)OCc2ccccc2)ccc2ccccc12)C(=O)OCc1ccccc1 [Compound 38] | – | – | – | – | – | 0.99 to 15.6 (≈ 1.04 to 16.4 µM) | – | – | 15.7 to 62.5 (≈ 16.5 to 65.7 µM)

The next lines start with results.

MIC [1, 6] [µg/mL] | MIC [2, 7] [µg/mL] | MIC [3, 8] [µg/mL] | MIC [4, 9] [µg/mL] | MIC [5] [µg/mL] | Structure (SMILES) | MIC ([1]; 24 h) [µg/mL] | MIC ([3]; VRE, 24 h) [µg/mL] | MIC ([4]; VRE, 24 h) [µg/mL] | MIC ([2]; VRE, 24 h) [µg/mL]
0.99 to 15.6 | 15.7 to 62.5 | 15.7 to 62.5 | 15.7 to 62.5 | 15.7 to 62.5 | C=CC[C@H](NC(=O)[C@@H](CCCNC(=N)N)NC(=O)[C@@H](CCCCN)NC(=O)COc1ccc2ccccc2c1-c1c(OCC2CCCCC2)ccc2ccccc12)C(=O)OCc1ccccc1.Cl.Cl (atropisomer, axis not shown) [Compound 23] | – | – | – | –
0.99 to 15.6 | 15.7 to 62.5 | 15.7 to 62.5 | 15.7 to 62.5 | 15.7 to 62.5 | C=CC[C@H](NC(=O)[C@@H](CCCNC(=N)N)NC(=O)[C@@H](CCCCN)NC(=O)COc1ccc2ccccc2c1-c1c(OCC2CCC2)ccc2ccccc12)C(=O)OCc1ccccc1.Cl.Cl (atropisomer, axis not shown) [Compound 24] | – | – | – | –
0.99 to 15.6 | 15.7 to 62.5 | 15.7 to 62.5 | 15.7 to 62.5 | 15.7 to 62.5 | C=CC[C@H](NC(=O)[C@@H](CCCNC(=N)N)NC(=O)[C@@H](CCCCN)NC(=O)COc1ccc2ccccc2c1-c1c(OCC(C)C)ccc2ccccc12)C(=O)OCc1ccccc1.Cl.Cl (atropisomer, axis not shown) [Compound 25] | – | – | – | –
